# Results reported in publication PMC5532363, “Synergistic blending of high-valued heterocycles inhibits growth of Plasmodium falciparum in culture and P. berghei infection in mouse model” (Scientific Reports, 2017).
# Legend:
# P. berghei NK65 = assay: Modified Peter's 4-day suppressive test in P. berghei NK65 infected Swiss albino mice; format: in vivo, Plasmodium berghei; settings: for effect on parasite load / effect on survival: 50 mg/kg s.c. for four consecutive days (artemisinin 5 mg/kg in combination), vs untreated; for median survival time (MST): 6h/6u 50 mg/kg, artemisinin 5 mg/kg, s.c. for four consecutive days, n = 6/group
# Protocol: The antimalarial effect of two active analogues, 6h and 6u (administered at 50 mg/kg of body weight), was determined in mice infected with P. berghei NK65, a strain, which results in high levels of blood-stage parasitemia. […] However, the 6u analogue had better antimalarial efficacy than the 6h analogue (Fig. 6A). As such, we then evaluated the efficacy of 6u (50 mg/kg) in combination with artemisinin (5 mg/kg of body weight) at reduced dosage in the murine malaria model. […] The median survival times of animals treated with Pht 6u alone, as well in combination with ART were 23 and 27.5 days, respectively (P<0.001).
# Figure 6 Antimalarial effect of Pht analogs (6h and 6u) alone and in combination with Artemisinin (6u and ART) on parasitemia and survival in mice infected with P. berghei NK65. Mice were injected with 1 × 10^7 P. berghei infected RBCs. After 48 hours mice were treated with control (PBS: untreated), 6h and 6u (alone), and 6u in combination with artemisinin (all injected subcutaneously) for four consecutive days. The % of parasitemia was determined for the groups on days 5, 8 and 15 by randomly selecting 10 different optical fields on blood smears. (A) Administration of 6h and 6u (alone), and 6 u in combination with ART. Data are the mean ± SEM from six animals per treatment group. (B) Survival in the treatment groups (n = 6/group). (C) Photomicrograph of blood smears of untreated versus treatment groups at day 15 post infection (100x magnification). ART, Artemisinin; *P < 0.05. TEXT PRINTED IN THE PICTURE: (B) Phthalimide 6h: MST- 19.5 | (B) Phthalimide 6u: MST- 23 | (B) Artemisinin: MST- 21.5 | (B) Phthalimide 6u+Artemisinin: MST- 27.5
# All animal experiments were performed in female Swiss albino mice (4 to 5 weeks old, weighing 25 to 30 g). The animals were housed under standard controlled conditions at 25 °C with a 12-h light-dark cycle and access to sterilized food pellets and water. All experiments were carried out in accordance with the standard procedures approved by the Animal Ethics Committee of the University of Delhi South Campus, under the Control and Supervision of Experiments on Animals (CPCSEA), Ministry of Social Justice and Empowerment, Government of India. […] The antimalarial activity was carried out in accordance with a slightly modified version of the Peter’s 4-day suppressive test[43]. The animals were assigned to each group (n = 6). Subsequently, after 48 hour of postinfection, the parasitemia level reached 1 to 2%, and all the groups of mice were treated by subcutaneous (s.c.) injection with compounds 6h and 6u alone as well in combination with artemisinin solubilized in DMSO. One group was kept as a control and treated with physiological saline. The efficacy of the treatment was monitored by measuring the parasitemia and survival on days 5, 8 and 15 posttreatments by obtaining thin smears of blood withdrawn from the tail vein of infected mice and staining with 10% Giemsa. The level of parasitemia was determined by counting infected and noninfected erythrocytes from 10 to 15 randomly selected optical fields at 100x magnification and expressed as the number of infected erythrocytes per 100 erythrocytes. The survival of mice was recorded and observed for external symptoms, such as change in body weight, ruffled fur, lethargy and paralysis, until 30 or 40 days posttreatment. The reduction in the level of parasitemia was taken as the index for the curative activities of the drugs. The percentage of parasitemia was calculated manually with the Cell Counting Aid software[44] using the formula (total no. of parasitized RBCs)/(total no. of RBCs) × 100.
# For in-vivo experiments, statistical differences between two groups were determined by Student’s t test and between multiple groups using one-way analysis of variance (ANOVA), with P values of <0.05, by GraphPad Prism (version 5.01; GraphPad Software, Inc., CA). […]
# [1] = MTT cytotoxicity assay in U937 cells; format: cell-based; settings: human; for selectivity ratio at 24 h: U937 cells (CC50) versus 3D7 parasites (IC50), read-out: selectivity index (SI); for CC50 at 24 h: U937 cells, MTT
# Protocol: As a final step in the investigational pipeline, we determined the cytotoxic effect of the four active analogues (6a, 6h, 6m and 6u) in U937 cell lines by measuring 50% cytotoxic concentrations (CC50) and calculating selectivity indices (SIs) as a measure of toxicity in human cells.
# Cytotoxicity of the 4 select Pht compounds on human cells was evaluated by assessing cell viability of the U937, a human acute monocyte leukemia cell lines by use of the MTT assay. U937 was acquired from American Type Culture Collection (ATCC, Rockville, MD) and maintained in RPMI 1640 medium supplemented with 10% fetal bovine serum, and Penicillin-streptomycin (1% v/v) (Gibco, UK) at 37 °C. Robust U937 cells at a concentration of 80,000 cells/ml were plated into 96-well plates and incubated for 24 hours. Six concentrations of the Pht compounds were added in a two-fold dilution from starting concentration of 50 to 1.56 µM in triplicate and incubated with the cells for 24 hours. This was followed by addition of 10 µL MTT solution (5 mg/mL) into each well, incubated for 4 hour at 37 °C followed by addition of 50 µL DMSO to dissolve the formazan precipitate according to manufacturer’s protocol. Aliquots were drawn from each well and color intensity was measured spectrophotometrically in an ELISA plate reader (Biotek, ELx800) at 540 nm. The cell viability ratio was calculated by the following formula: % cytotoxicity = [Mean OD of test cells] − [Mean OD of control cells]/[Mean OD of control cells] × 100. Viability counts were then plotted against corresponding drug concentrations to yield cytotoxicity (CC50) through non-linear regression (sigmoid dose-response/variable slope equation). Drug CC50 values were then used to define selectivity indices, which is a measure of drug safety in human relative to parasitic cells and was calculated as the ratio of the CC50 value determined on the U937 cells (cytotoxicity) and the IC50 value determined on parasite growth inhibition 3D7 (anti-plasmodial activity). In this study, we set SI > 2 as cut-off as an indicative of low drug cytotoxicity.
Compound,effect on parasite load (P. berghei NK65),effect on survival (P. berghei NK65),median survival time (MST) (P. berghei NK65),selectivity ratio at 24 h [1],CC50 at 24 h [1]
CC(C)C[C@H](c1nc2ccccc2n1Cc1c[nH]nn1)N1C(=O)c2ccccc2C1=O [Compound 6u],suppression of the parasite load,improved survival,23 days,2.31 ± 0.76,2.08 ± 1.6 µM
CC[C@@H](C)[C@H](c1nc2ccccc2n1Cc1cn(-c2ccc(F)cc2)nn1)N1C(=O)c2ccccc2C1=O [Compound 6h],suppression of the parasite load,improved survival,19.5 days,41.2 ± 1.7,28.8 ± 0.67 µM
